Residues, ends and D or L forms follow the SMILES beside them. *: point of attachment. Cbz = O=C(OCc1ccccc1)*
Legend:
[1] = tested on: BIN2-HA protein; assay: BL treatment assay, BIN2-HA protein amount by IP/Western analysis; format: in vivo, Arabidopsis thaliana
Description: Seedlings from 1-week-old plants were harvested and ground to powder in N2 and mixed with the extraction buffer containing 50 mM Tris-Cl (pH 7.5), 100 mM NaCl, 10 mM MgCl2, 1 mM EDTA, 10% glycerol 0.1% NP-40, 1 mM phenymethylsulfonyl fluoride (PMSF), and 1× protease inhibitor cocktail (GenDEPOT) 20 min at 4° C.
The IP experiments were performed using HA Tag IP/Co-IP Kit according to the manufacturer's protocol (Thermo Pierce).
The supernatant was incubated with prewashed anti-HA agarose beads for 4 h at 4° C. with gentle shaking. The beads were collected and washed three times with TBS plus 0.05% Tween-20 detergent (TBST), and dissolved in 2×SDS sample buffer. The proteins were separated by 10% SDS-PAGE, and Anti-HA (1:2,000, AbCam #9110) antibody was used to detect BIN2-HA.
[…] The seedlings were transferred to liquid 1/2 MS medium with 1% sucrose containing various concentrations of BL (24-epibrassinolide, Sigma #E1641), and incubated for the indicated times before being removed for Western analysis.
To investigate the BL-Induced BIN2 degradation, BRZ (Sekimata et al., 2001) treated seedlings were incubated in liquid 1/2 MS medium containing 1 μM BL and/or 20 μM MG132 (Sigma), a specific 26S proteasome inhibitor (Rock et al., 1994) for 30 min.

[2] = tested on: BIN2-HA transgenic seedlings; assay: Phenotype of BIN2-HA transgenic seedlings on BRZ / BL medium; format: in vivo, Arabidopsis thaliana
Description: (§1) Arabidopsis seeds were sterilized and germinated on agar-solidified 1/2 Murashige and Skoog (MS, Duchefa #M0222) with 1% sucrose. After stratification at 4° C. for 3 days, the wild type and mutant plants were grown under a photoperiod of a long day condition (16 h light/8 h dark) at 23° C. Seeds of various transgenic lines were germinated on Murashige and Skoog medium (1/2 MS) with 2 μM BRZ (Sigma), a BR biosynthesis inhibitor, and grown under a long day condition at 23° C. for 1 week. The seedlings were transferred to liquid 1/2 MS medium with 1% sucrose containing various concentrations of BL (24-epibrassinolide, Sigma #E1641), and incubated for the indicated times before being removed for Western analysis. To confirm whether the amount of BIN2 is affected by the BRs level, we grew BIN2-HA line and a bin2-6D-HA line on medium containing 2 μM BRZ for 2 weeks and then transferred them to liquid medium with 1 μM epi-BL for 2 to 8 days.

[3] = tested on: bin2-6D-HA transgenic seedlings; assay: Phenotype of bin2-6D-HA transgenic seedlings on BL medium; format: in vivo, Arabidopsis thaliana; conditions: 1 μM BL-containing medium for 0, 2, 4 and 8 d
Description: as §1

[4] = tested on: BIN2; assay: Immunoprecipitation combined with LC/MALDI-TOF/MS of BIN2-interacting proteins; format: binding, Arabidopsis thaliana; conditions: BL-treated transgenic seedlings, anti-HA IP
Description: Seeds of transgenic lines, BIN2-HA, bin2-6D-HA, and BIN2KD-HA, were germinated on agar-solidified 1/2 MS with 1% sucrose supplemented with 1 μM BRZ and grown under a long day condition at 23° C. for 2 week. The seedlings were transferred them to liquid medium (1/2 MS with 1% sucrose) with 1 μM BL, and incubated for 30 min. These seedlings were ground to powder in liquid nitrogen and solubilized with protein extraction buffer containing 50 mM Tris-Cl (pH 7.5), 100 mM NaCl, 10 mM MgCl2, 1 mM EDTA, 10% glycerol 0.1% NP-40, 1 mM PMSF, and 1× Protease inhibitor cocktail (GenDEPOT). The extracts were centrifuged at 20,000×g for 20 min, and the resulting supernatants were collected and incubated with pretreated anti-HA agarose bead (Thermo Pierce) at 4° C. After incubation, the agarose beads were collected by centrifugation at 800×g for 30 sec and washed three times with extraction buffer. Immunoprecipitation (IP) complex was eluted by elution buffer containing 50 mM Tris-HCl (pH 7.5), 50 mM DTT, 1 mM EDTA, 10% glycerol, 1% SDS, and 0.01% bromophenol blue, and then separated in a 10% SDS-PAGE gel, and immunoblot analysis. […] The gel lane with separated bin2-6D-HA proteins was cut into a single slices, and then in-gel tryptic digestion and peptide desalting, the extracted peptides were analyzed by MALDI-TOF mass spectrometry on an Ultraflex III TOF/TOF (Bruker Daltonics, Germany). […]

[5] = biological target: T1, BIN2 (Arabidopsis thaliana, UniProt Q39011); assay: Yeast two-hybrid assay of the BIN2-BRF1 interaction; format: binding; conditions: SD/-L-T-H medium with 1.5 mM 3-AT
T1 construct: the full-length cDNA fragments of BIN2 and BRF1 were PCR amplified with specific primers; expressed in transfected cells; host or cells: yeast strain AH109
T1 sequence (Q39011 1-380): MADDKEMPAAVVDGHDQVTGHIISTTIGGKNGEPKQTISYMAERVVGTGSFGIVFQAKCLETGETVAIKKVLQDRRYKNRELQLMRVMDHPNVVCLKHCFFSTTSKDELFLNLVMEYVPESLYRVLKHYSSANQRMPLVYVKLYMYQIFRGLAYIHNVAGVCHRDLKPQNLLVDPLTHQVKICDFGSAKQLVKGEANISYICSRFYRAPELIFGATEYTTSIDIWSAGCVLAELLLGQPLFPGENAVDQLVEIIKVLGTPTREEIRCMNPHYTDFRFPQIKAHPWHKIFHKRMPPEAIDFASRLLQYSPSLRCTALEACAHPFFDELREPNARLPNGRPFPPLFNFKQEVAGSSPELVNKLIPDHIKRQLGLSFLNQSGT
Description: Yeast two-hybrid assay was conducted following the Matchmaker Gold Yeast Two-Hybrid System manufacturer's protocol (Clontech) for testing the BIN2 and BRF1 interaction.
To make the yeast two-hybrid assay constructs, the full-length cDNA fragments of BIN2 and BRF1 were PCR amplified with specific primers, BIN2-F and BIN2-R, BRF1-NdeI-F and BRF1-EcoRI-R, respectively. The PCR products BIN2 and BRF1 were ligated to the prey pGADT7 vector (AD vector) and the bait pGBKT7 vector (DBD vector), respectively. These prey and bait vectors were transformed into the yeast strain AH109, and yeast was grown on SD/-Trp/-Leu medium for 3 days. Transformants were selected on SD/Leu-/Trp- and SD/Leu-/Trp-/His-/1.5 mM 3-amino-1,2,4-triazole (3-AT, Sigma) medium. Empty vectors were used as the negative control.
Yeast two-hybrid analysis performed using primers BIN2-NdeI-F (5′-[…]-3′), BIN2-EcoRI-R (5′-[…]-3′), BRF1-NdeI-F (5′-[…]-3′), BRF1-EcoRI-R (5′-[…]-3′), (NdeI and EcoRI sites are underlined) (SEQ ID NOs: 48-51)

Molecule: CC(C)[C@@H](C)[C@@H](O)[C@H](O)[C@@H](C)[C@H]1CC[C@H]2[C@@H]3COC(=O)[C@H]4C[C@H](O)[C@H](O)C[C@]4(C)[C@H]3CC[C@]12C [BL, 24-epibrassinolide]
- time within which BRZ-stabilized BIN2-HA protein decreased by BL treatment ([1]; BRZ-grown BIN2-HA seedlings transferred to BL liquid medium, Western): 10 to 30 min
- phenotypic response of BIN2-HA transgenic line to BL treatment ([2]; 1 μM BL-containing medium for 0, 2, 4 and 8 d): responds
- phenotypic response of dwarfed bin2-6D-HA line to BL treatment [3]: BL-insensitive

Molecule: CC(O)(c1ccccc1)C(Cc1ccc(Cl)cc1)n1cncn1 (stereo not drawn) [BRZ]
- effect of exogenous application on BIN2 protein ([1]; exogenous application of BRZ): increased
- effect of BRZ treatment on bin2 phenotype of BIN2-HA seedling ([2]; 2 μM BRZ medium for 2 weeks): enhanced

Molecule: CC(C)C[C@@H](C=O)NC(=O)[C@H](CC(C)C)NC(=O)[C@H](CC(C)C)NC(=O)OCc1ccccc1 [MG132] (Cbz-Leu-Leu-Leu-aldehyde)
- effect on BL-induced BIN2 disappearance ([1]; BIN2-HA seedlings, 1 μM BRZ 2 weeks, then 1 μM BL and/or 20 μM MG132, 30 min, IP/Western): effectively blocked

B1: BRF2: Arabidopsis F-box E3 ligase protein encoded by At5g56690, SEQ ID NO: 4 (protein, listed as Arabidopsis sp.)
chain: MAEISGLPDDLLVKILAFLPTKVAISTSVLSKQWRFLWMWLPKLKYDDYDDITDGFNSVSAFQTYRDFIAKNLPLHRAPIIESLSLGFRCGTLQPEDLKSWVEVAVSRSVRELSILAYYRNNYALSSSSLYTCKSLVTLKGFNIRVDVPPTVCLLPSLRTLELKRVRYLNEDSLRMLLSFCPVLEYLSIERHDNDNLRGLVVDVPSLRRLSLTSYTGCSSDDYVIVTPSLKYFKAFDYRSEISSYKIEKIPELEEADISIERNPEKLFVYFKSIKCLSLQVDFNSKEEPGYDSGIVFNHLEELTPYINDANWSKLLFRLLNDSPKLRVLEISNSKSFYKEKIGEYLPVSWSKNQGSVPKCFLNSLETFRVKWYYSEEQEDRDFLSLIFKHARCLKSTSILHR
- identification as BIN2-interacting protein by IP combined LC/MALDI-TOF/MS [4]: BIN2-interacting protein

B2: BRF1: Arabidopsis F-box E3 ligase protein encoded by At5g62970, SEQ ID NO: 2 (protein, listed as Arabidopsis sp.)
chain: MDKISGFSDDELLVKILSFLPFKFAITTSVLSKQWKFLWMRVPKLEYDEDSMYSFEYSFRYFLPKAKEVDSETYSIVSESGHRMRSFIEKNLPLHSSPVIESLRLKFFTEVFQPEDIKLWVEIAVSRCAQELSVDFFPKEKHNALLPRNLYTCKSLVTLKLRNNILVDVPHVFSLPSLKILHLERVTYGDGESLQRLLSNCSVLEDLVVELDTGDNVRKLDVIIPSLLSLSFGMSRYCAYEGYRIDTPSLKYFKLTDLSKTFSGLIENMPKLEEANITARHNFKKLLELVTSVKRLSLNIENNDAEALTAIYGDDIVFNELEHLNFHIHNAYWSELLYWLLKASPKLQNLEFDEQCSRDGTMGTLAVFWNQPNSVPQCLLSTLQTFEWSGYPGSVQGKDLATYILRKSRQLKIATISIGYGLDPQQKLKMEMDVKFSFRASPTCKRVFY
- interaction with BIN2 in yeast two-hybrid assay [5]: specially interacted
- identification as BIN2-interacting protein by IP combined LC/MALDI-TOF/MS [4]: BIN2-interacting protein

Reference: US20190135879A1, “GENE REGULATING BIN2 FUNCTION AND TRANSGENIC PLANT TRANSFORMED BY THE GENE” (SEOUL NATIONAL UNIVERSITY R&DB FOUNDATION, priority 2016, published 2019)
